This is an account of results in article PMC3041239 (Journal of Medicinal Chemistry, 2011).

Marks after values point to notes of the source that are not given here.

In assay [1] the test system is rats. Particulars: rat, cited from earlier work.
For assay [2] the following is noted: sc administration; cited from earlier work.
The test system of assay [3] is rats. The assay can be described thus: Tail-flick test in the rat after sc administration. The class given is in vivo. Particulars: pair 15 vs 16. Background: Hot-plate and tail-flick tests time the reaction to a heat stimulus.
The next assay concerns the target human μ opioid receptor (Homo sapiens, UniProt P35372). The format is biochemical.
The test system of the next assay is κ opioid receptor. Particulars: third value of μ:δ:κ; cited from earlier work.
The subject of a further assay is δ opioid receptor. Particulars: second value of μ:δ:κ; cited from earlier work.
The subject of another assay is μ opioid receptor. Particulars: first value of μ:δ:κ; cited from earlier work.

human μ opioid receptor, sequence (P35372 whole entry): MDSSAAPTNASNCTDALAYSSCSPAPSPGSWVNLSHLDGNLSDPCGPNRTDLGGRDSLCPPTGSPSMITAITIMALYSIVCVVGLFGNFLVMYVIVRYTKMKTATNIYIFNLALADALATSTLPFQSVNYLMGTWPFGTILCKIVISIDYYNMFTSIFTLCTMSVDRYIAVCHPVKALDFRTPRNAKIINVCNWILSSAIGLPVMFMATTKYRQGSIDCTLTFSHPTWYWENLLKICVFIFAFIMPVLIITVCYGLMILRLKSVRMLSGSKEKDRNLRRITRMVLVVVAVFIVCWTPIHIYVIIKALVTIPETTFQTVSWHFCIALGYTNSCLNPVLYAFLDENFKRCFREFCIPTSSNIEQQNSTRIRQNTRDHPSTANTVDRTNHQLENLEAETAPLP

Turning to `CO[C@@]12CC[C@H](NCC(=O)O)[C@@H]3Oc4c(O)ccc5c4[C@@]31CCN(C)[C@@H]2C5` [Compound 9], in the assay on rats [1], the “ED50 (nmol/kg, sc), time after drug administration 0.5 h” value is given as 137 nmol/kg; the “ED50 (nmol/kg, sc), time after drug administration 1 h” value is 58.5 ^c nmol/kg; the “ED50 (nmol/kg, sc), time after drug administration 2 h” value is recorded as 143 nmol/kg. In addition, the “ED50 (nmol/kg, sc), time after drug administration 3 h” value in the assay with rats [1] (3 h) is listed as 437 nmol/kg.
With `CO[C@@]12CC[C@@H](NCC(=O)O)[C@@H]3Oc4c(O)ccc5c4[C@@]31CCN(C)[C@@H]2C5` [Compound 10, 2-[(4,5α-Epoxy-3-hydroxy-14β-methoxy-17-methylmorphinan-6β-yl)amino] acetic Acid], the “antinociceptive potency lower than that of 14-O-methyloxymorphone (1)” value in assay [2] is reported as 2 fold. In the assay on rats [1], the “ED50 (nmol/kg, sc), time after drug administration 0.5 h” value is given as 50.8 nmol/kg; the “ED50 (nmol/kg, sc), time after drug administration 1 h” value is listed as 29.0 ^c nmol/kg; the “ED50 (nmol/kg, sc), time after drug administration 2 h” value is recorded as 43.3 nmol/kg.
With `CC(C)(C)OC(=O)CN[C@@H]1CC[C@@]2(OCCCc3ccccc3)[C@H]3Cc4ccc(O)c5c4[C@@]2(CCN3CC2CC2)[C@H]1O5` [Compound 16], the “difference in the potency between α and β epimers” value in the assay on rats [3] amounted to 13 fold.
Take `Cl.Cl.O=C(O)CN[C@H]1CC[C@@]2(OCCCc3ccccc3)[C@H]3Cc4ccc(O)c5c4[C@@]2(CCN3CC2CC2)[C@H]1O5` [Compound 17, [[17-Cyclopropylmethyl-4,5α-epoxy-3-hydroxy-14β-[(3-phenylpropyl)oxy]morphinan-6α-yl]amino]acetic Acid Dihydrochloride]: the “functional character at the μ receptor” value on human μ opioid receptor is given as “highly potent partial agonists”.
On the same count and under the same terms, for `Cl.Cl.O=C(O)CN[C@@H]1CC[C@@]2(OCCCc3ccccc3)[C@H]3Cc4ccc(O)c5c4[C@@]2(CCN3CC2CC2)[C@H]1O5` [Compound 18, [[17-Cyclopropylmethyl-4,5α-epoxy-3-hydroxy-14β-[(3-phenylpropyl)oxy]morphinan-6β-yl]amino]acetic Acid Dihydrochloride] the value was “highly potent partial agonists”.
Take `O=C1CC[C@@]2(O)[C@H]3Cc4ccc(O)c5c4[C@@]2(CCN3CC2CC2)[C@H]1O5` [naltrexone]: the “binding affinity κ” value in the assay on κ opioid receptor is recorded as 0.40. In addition, the “binding affinity δ” value with δ opioid receptor is given as 8.70. Besides, the “binding affinity μ” value with μ opioid receptor is given as 0.20.
